Experimental data published in ChEMBL document CHEMBL3046822, “Synthesis, antiplatelet aggregation activity, and molecular modeling study of novel substituted-piperazine analogues” (2011).
The source made the active and inactive calls. The calls are words filed in the database; no cut-off is given here.

Key:
Platelet [1] = assay: Antiaggregating activity in Homo sapiens (human) platelet rich plasma assessed as inhibition of arachidonic acid-induced platelet aggregation at 0.5 uM incubated for 4 min prior to arachidonic acid-induction measured for 5.5 min by turbidometric analysis; format: functional
Platelet [2] = assay: Antiaggregating activity in Homo sapiens (human) platelet rich plasma assessed as inhibition of arachidonic acid-induced platelet aggregation at 1 uM incubated for 4 min prior to arachidonic acid-induction measured for 5.5 min by turbidometric analysis; format: functional, cell-free
Platelet [3] = assay: Antiaggregating activity in Homo sapiens (human) platelet rich plasma assessed as inhibition of adrenaline-induced platelet aggregation at 0.5 uM incubated for 4 min prior to adrenaline-induction measured for 5.5 min by turbidometric analysis; format: functional, cell-free
Platelet [4] = assay: Antiaggregating activity in Homo sapiens (human) platelet rich plasma assessed as inhibition of adrenaline-induced platelet aggregation at 1 uM incubated for 4 min prior to adrenaline-induction measured for 5.5 min by turbidometric analysis; format: functional, cell-free
Platelet [5] = assay: Antiaggregating activity in Homo sapiens (human) platelet rich plasma assessed as inhibition of adrenaline-induced platelet aggregation at 0.125 uM incubated for 4 min prior to adrenaline-induction measured for 5.5 min by turbidometric analysis; format: functional, cell-free
Platelet [6] = assay: Antiaggregating activity in Homo sapiens (human) platelet rich plasma assessed as inhibition of adrenaline-induced platelet aggregation at 0.25 uM incubated for 4 min prior to adrenaline-induction measured for 5.5 min by turbidometric analysis; format: functional, cell-free
[7] = Antiaggregating activity in Homo sapiens (human) platelet rich plasma assessed as ADP-induced platelet aggregation at 0.125 uM incubated for 4 min prior to ADP-induction measured for 5.5 min by turbidometric analysis (reference value: 54 to 88%); format: functional
[8] = Antiaggregating activity in Homo sapiens (human) platelet rich plasma assessed as ADP-induced platelet aggregation at 0.25 uM incubated for 4 min prior to ADP-induction measured for 5.5 min by turbidometric analysis (reference value: 54 to 88%); format: functional
[9] = Antiaggregating activity in Homo sapiens (human) platelet rich plasma assessed as disaggregation of ADP-induced platelet aggregation at 0.5 uM incubated for 4 min prior to ADP-induction measured for 5.5 min by turbidometric analysis relative to control; format: functional
[10] = Antiaggregating activity in Homo sapiens (human) platelet rich plasma assessed as ristocetin-induced platelet aggregation at 1 uM incubated for 4 min prior to ristocetin-induction measured for 5.5 min by turbidometric analysis (reference value: 65 to 99%); format: functional
[11] = Antiaggregating activity in Homo sapiens (human) platelet rich plasma assessed as ristocetin-induced platelet aggregation at 0.5 uM incubated for 4 min prior to ristocetin-induction measured for 5.5 min by turbidometric analysis (reference value: 65 to 99%); format: functional
Platelet [12] = assay: Antiaggregating activity in Homo sapiens (human) platelet rich plasma assessed as inhibition of ADP-induced platelet aggregation at 1 uM incubated for 4 min prior to ADP-induction measured for 5.5 min by turbidometric analysis; format: functional, cell-free
[13] = Antiaggregating activity in Homo sapiens (human) platelet rich plasma assessed as collagen-induced platelet aggregation at 0.125 uM incubated for 4 min prior to collagen-induction measured for 5.5 min by turbidometric analysis (reference value: 50 to 98%); format: functional
[14] = Antiaggregating activity in Homo sapiens (human) platelet rich plasma assessed as collagen-induced platelet aggregation at 0.25 uM incubated for 4 min prior to collagen-induction measured for 5.5 min by turbidometric analysis (reference value: 50 to 98%); format: functional
Platelet [15] = assay: Antiaggregating activity in Homo sapiens (human) platelet rich plasma assessed as inhibition of collagen-induced platelet aggregation at 0.5 uM incubated for 4 min prior to collagen-induction measured for 5.5 min by turbidometric analysis; format: functional, cell-free
Platelet [16] = assay: Antiaggregating activity in Homo sapiens (human) platelet rich plasma assessed as inhibition of collagen-induced platelet aggregation at 1 uM incubated for 4 min prior to collagen-induction measured for 5.5 min by turbidometric analysis; format: functional, cell-free
[17] = Antiaggregating activity in Homo sapiens (human) platelet rich plasma assessed as ristocetin-induced platelet aggregation at 0.125 uM incubated for 4 min prior to ristocetin-induction measured for 5.5 min by turbidometric analysis (reference value: 65 to 99%); format: functional
[18] = Antiaggregating activity in Homo sapiens (human) platelet rich plasma assessed as ristocetin-induced platelet aggregation at 0.25 uM incubated for 4 min prior to ristocetin-induction measured for 5.5 min by turbidometric analysis (reference value: 65 to 99%); format: functional
[19] = Antiaggregating activity in Homo sapiens (human) platelet rich plasma assessed as arachidonic acid-induced platelet aggregation at 0.125 uM incubated for 4 min prior to arachidonic acid-induction measured for 5.5 min by turbidometric analysis (reference value: 55 to 100%); format: functional
Platelet [20] = assay: Antiaggregating activity in Homo sapiens (human) platelet rich plasma assessed as inhibition of arachidonic acid-induced platelet aggregation at 0.25 uM incubated for 4 min prior to arachidonic acid-induction measured for 5.5 min by turbidometric analysis; format: functional, cell-free
Platelet [21] = assay: Antiaggregating activity in Homo sapiens (human) platelet rich plasma assessed as inhibition of adrenaline-induced platelet aggregation at 4 uM incubated for 4 min prior to adrenaline-induction measured for 5.5 min by turbidometric analysis; format: functional, cell-free
Platelet [22] = assay: Antiaggregating activity in Homo sapiens (human) platelet rich plasma assessed as inhibition of adrenaline-induced platelet aggregation at 10 uM incubated for 4 min prior to adrenaline-induction measured for 5.5 min by turbidometric analysis; format: functional, cell-free
[23] = Antiaggregating activity in Homo sapiens (human) platelet rich plasma assessed as ristocetin-induced platelet aggregation at 4 uM incubated for 4 min prior to ristocetin-induction measured for 5.5 min by turbidometric analysis (reference value: 65 to 99%); format: functional
[24] = Antiaggregating activity in Homo sapiens (human) platelet rich plasma assessed as ristocetin-induced platelet aggregation at 5 uM incubated for 4 min prior to ristocetin-induction measured for 5.5 min by turbidometric analysis (reference value: 65 to 99%); format: functional
[25] = Antiaggregating activity in Homo sapiens (human) platelet rich plasma assessed as ristocetin-induced platelet aggregation at 10 uM incubated for 4 min prior to ristocetin-induction measured for 5.5 min by turbidometric analysis (reference value: 65 to 99%); format: functional
[26] = Antiaggregating activity in Homo sapiens (human) platelet rich plasma assessed as disaggregation of ADP-induced platelet aggregation at 4 uM incubated for 4 min prior to ADP-induction measured for 5.5 min by turbidometric analysis relative to control; format: functional
Platelet [27] = assay: Antiaggregating activity in Homo sapiens (human) platelet rich plasma assessed as inhibition of adrenaline-induced platelet aggregation at 5 uM incubated for 4 min prior to adrenaline-induction measured for 5.5 min by turbidometric analysis; format: functional, cell-free
[28] = Antiaggregating activity in Homo sapiens (human) platelet rich plasma assessed as disaggregation of ADP-induced platelet aggregation at 5 uM incubated for 4 min prior to ADP-induction measured for 5.5 min by turbidometric analysis relative to control; format: functional
Platelet [29] = assay: Antiaggregating activity in Homo sapiens (human) platelet rich plasma assessed as inhibition of ADP-induced platelet aggregation at 10 uM incubated for 4 min prior to ADP-induction measured for 5.5 min by turbidometric analysis; format: functional, cell-free
Platelet [30] = assay: Antiaggregating activity in Homo sapiens (human) platelet rich plasma assessed as inhibition of collagen-induced platelet aggregation at 4 uM incubated for 4 min prior to collagen-induction measured for 5.5 min by turbidometric analysis; format: functional, cell-free
Platelet [31] = assay: Antiaggregating activity in Homo sapiens (human) platelet rich plasma assessed as inhibition of collagen-induced platelet aggregation at 10 uM incubated for 4 min prior to collagen-induction measured for 5.5 min by turbidometric analysis; format: functional, cell-free
Platelet [32] = assay: Antiaggregating activity in Homo sapiens (human) platelet rich plasma assessed as inhibition of collagen-induced platelet aggregation at 5 uM incubated for 4 min prior to collagen-induction measured for 5.5 min by turbidometric analysis; format: functional, cell-free
Platelet [33] = assay: Antiaggregating activity in Homo sapiens (human) platelet rich plasma assessed as inhibition of arachidonic acid-induced platelet aggregation at 4 uM incubated for 4 min prior to arachidonic acid-induction measured for 5.5 min by turbidometric analysis; format: functional, cell-free
Platelet [34] = assay: Antiaggregating activity in Homo sapiens (human) platelet rich plasma assessed as inhibition of arachidonic acid-induced platelet aggregation at 10 uM incubated for 4 min prior to arachidonic acid-induction measured for 5.5 min by turbidometric analysis; format: functional, cell-free
Platelet [35] = assay: Antiaggregating activity in Homo sapiens (human) platelet rich plasma assessed as inhibition of arachidonic acid-induced platelet aggregation at 5 uM incubated for 4 min prior to arachidonic acid-induction measured for 5.5 min by turbidometric analysis; format: functional, cell-free

In the case of `O=C(c1ccc[n+](Cc2ccc(Br)cc2)c1)N1CCN(c2ccccc2Cl)CC1.[Br-]`, the inhibition (Platelet [1]) is reported as “Active”, the inhibition (Platelet [2]) is reported as “Active” and the inhibition (Platelet [3]) is reported as “Active”. The inhibition (Platelet [4]) was “Active”, the inhibition (Platelet [5]) was “Active” and the inhibition (Platelet [6]) was “Active”. It also gave an Activity [7] of 84%, an Activity [8] of 74% and an Activity [9] of 52%. For the same molecule, the Activity [10] was 69%, the Activity [11] was 78% and the inhibition (Platelet [12]) was “Active”. The Activity [13] was 67%, the Activity [14] was 77% and the inhibition (Platelet [15]) was “Active”. For the same molecule, the inhibition (Platelet [16]) was “Active”, the Activity [17] was 84% and the Activity [18] was 84%. The Activity [19] was 68% and the inhibition (Platelet [20]) was “Active”.
For `O=C(c1ccc[n+](Cc2ccc(F)cc2)c1)N1CCN(c2ccccc2Cl)CC1.[Cl-]`, the inhibition (Platelet [21]) was “Active”, the inhibition (Platelet [22]) was “Active” and the Activity [23] was 88%. For the same molecule, the Activity [24] was 87%, the Activity [25] was 24% and the Activity [26] was 60%. For the same molecule, the inhibition (Platelet [27]) was “Active”, the Activity [28] was 40% and the inhibition (Platelet [29]) was “Active”. For the same molecule, the inhibition (Platelet [30]) was “Active”, the inhibition (Platelet [31]) was “Active” and the inhibition (Platelet [32]) was “Active”. The inhibition (Platelet [33]) was “Active”, the inhibition (Platelet [34]) was “Active” and the inhibition (Platelet [35]) was “Active”.
